The IC50 is the concentration needed to halve the response being measured.

The nature of assay [1]: Inhibition of Escherichia coli MurD ligase.
The target in assay [2] is T1, Tubulin--tyrosine ligase (Homo sapiens) (UniProt Q8NG68).
T1 sequence (whole entry): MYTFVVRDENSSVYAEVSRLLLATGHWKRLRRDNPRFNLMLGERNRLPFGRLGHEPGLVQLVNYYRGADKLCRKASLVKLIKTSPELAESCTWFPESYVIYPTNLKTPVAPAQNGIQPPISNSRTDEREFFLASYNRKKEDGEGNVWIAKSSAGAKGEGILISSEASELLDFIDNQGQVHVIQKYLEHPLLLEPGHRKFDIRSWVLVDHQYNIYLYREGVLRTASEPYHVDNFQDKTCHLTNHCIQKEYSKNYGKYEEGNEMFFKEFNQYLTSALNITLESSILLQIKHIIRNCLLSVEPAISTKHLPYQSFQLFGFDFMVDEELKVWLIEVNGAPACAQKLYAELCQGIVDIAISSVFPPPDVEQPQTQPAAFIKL
Kind of assay: Inhibition of TTL (unknown origin).

For assay [3], the target named is T2, Tubulin polyglutamylase TTLL7 (Mus musculus) (UniProt A4Q9F0).
T2 sequence (whole entry): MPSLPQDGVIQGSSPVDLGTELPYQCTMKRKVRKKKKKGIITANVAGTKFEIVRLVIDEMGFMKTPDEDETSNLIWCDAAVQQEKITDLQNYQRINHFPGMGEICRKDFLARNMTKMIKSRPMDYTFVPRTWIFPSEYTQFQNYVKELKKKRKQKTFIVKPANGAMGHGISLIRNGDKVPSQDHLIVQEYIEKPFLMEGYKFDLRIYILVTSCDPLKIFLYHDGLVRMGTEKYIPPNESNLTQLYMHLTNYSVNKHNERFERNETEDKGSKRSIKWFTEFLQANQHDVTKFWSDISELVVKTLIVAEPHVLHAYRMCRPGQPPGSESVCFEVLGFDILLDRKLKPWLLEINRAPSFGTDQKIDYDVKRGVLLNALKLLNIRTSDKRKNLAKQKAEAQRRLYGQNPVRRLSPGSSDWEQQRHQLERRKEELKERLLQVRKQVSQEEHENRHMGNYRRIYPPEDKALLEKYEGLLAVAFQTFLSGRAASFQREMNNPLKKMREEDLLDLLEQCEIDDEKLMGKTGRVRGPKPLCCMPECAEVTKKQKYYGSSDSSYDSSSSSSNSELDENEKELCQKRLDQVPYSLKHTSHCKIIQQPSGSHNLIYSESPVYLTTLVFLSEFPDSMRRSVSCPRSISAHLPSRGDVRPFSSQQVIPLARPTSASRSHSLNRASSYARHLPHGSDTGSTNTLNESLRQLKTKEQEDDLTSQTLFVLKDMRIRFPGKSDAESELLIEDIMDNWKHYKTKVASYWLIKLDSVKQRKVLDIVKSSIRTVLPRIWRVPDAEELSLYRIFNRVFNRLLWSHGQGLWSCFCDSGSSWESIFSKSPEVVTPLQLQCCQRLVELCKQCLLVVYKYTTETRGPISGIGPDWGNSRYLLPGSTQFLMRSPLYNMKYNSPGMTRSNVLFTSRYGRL
Kind of assay: (§1) Inhibition of mouse recombinant N-terminal GST-tagged TTLL7-mediated Ac-DATAEEEGEFEEEAEEEVA glutamylation expressed in Escherichia coli Rosetta2 DE3 after 16 hrs by LC-MS analysis.

Assay [4] concerns the target T3, Tubulin polyglutamylase TTLL7 (Mus musculus, UniProt A4Q9F0).
T3 sequence (A4Q9F0 whole entry): T2 sequence (whole entry)
Described as §1.

The source made the active and inactive calls. The rule behind the calls is not given here.

Take `CC(=O)N[C@H]1[C@@H](OP(=O)(O)OP(=O)(O)OC[C@H]2O[C@@H](n3ccc(=O)[nH]c3=O)[C@H](O)[C@@H]2O)O[C@H](CO)[C@@H](O)[C@@H]1O[C@H](C)C(=O)N[C@@H](C)P(=O)(O)CC(CCC(=O)O)C(=O)O` (stereo partly drawn): in assay [1], it took 1 nM to reach half-maximal inhibition (IC50).

`CC(=O)N[C@@H](CCP(=O)(O)CC(CCC(=O)O)C(=O)O)C(=O)O` (mixture of isomers): the inhibition entry in assay [2] was “inactive”. Further, the inhibition result in assay [3] was “Active”.

Turning to `CC(NC(=O)CCCCCOP(=O)(O)OP(=O)(O)OC[C@H]1O[C@@H](n2ccc(=O)[nH]c2=O)[C@H](O)[C@@H]1O)P(=O)(O)CC(CCC(=O)O)C(=O)O` (stereo partly drawn), in assay [1], the IC50 is 700 nM.

Consider `CC(=O)NC(CCC(=O)O)P(=O)(O)CC(CCC(=O)O)C(=O)O` (mixture of isomers), for which the inhibition result in assay [2] is “inactive”. Moreover, the IC50 in assay [4] stood at 150000 nM.

Turning to `CCNC(=O)[C@H](CCP(=O)(O)CC(CCC(=O)O)C(=O)O)NC(C)=O` (mixture of isomers), in assay [2], the inhibition entry is “inactive”. Moreover, the inhibition result in assay [3] is “Active”.

Values taken from ChEMBL document CHEMBL2401688, “Phosphinic acid-based inhibitors of tubulin polyglutamylases” (Bioorg Med Chem Lett, 2013).
